Patent US20230295201A1 (Gilead Sciences, Inc., priority 2020, published 2023)
Where two headings read alike, the source gives them in different places.

Columns and labels:
in vitro [1] = conditions: human
Method: HEp-2 (1.5×10^3 cells/well) and MT-4 (2×10^3 cells/well) cells were plated in 384-well plates and incubated with the appropriate medium containing 3-fold serially diluted compound ranging from 15 nM to 100,000 nM. Cells were cultured for 4-5 days at 37° C. Following the incubation, the cells were allowed to equilibrate to 25° C., and cell viability was determined by adding Cell-Titer Glo viability reagent. The mixture was incubated for 10 min, and the luminescence signal was quantified using an Envision plate reader. Untreated cell and cells treated at 2 μM puromycin (Sigma, St. Louis, MO) serve as 100% and 0% cell viability control, respectively.

[2] = HEp-2 CC50 (cytotoxicity, Cell-Titer Glo); assay type: cell-based; conditions: human; uninfected HEp-2 cells, 4-5 days
Method: The same protocol as for the determination of antiviral activity is used for the measurement of compound cytotoxicity except that the cells are not infected with RSV. Instead, an uninfected cell mixture at the same density is added at 20 ul/well to plates containing prediluted compounds, also at 100 nL/sample. Assay plates are then incubated for 4 days followed by a cell viability test using the same CellTiter Glo reagent addition and measurement of luminescent readouts.

RSV strain A2 = experiment: RSV HEp-2 EC50 (infectious cytopathic cell protection assay); assay type: cell-based; conditions: HEp-2 cells, RSV A2, 4 days, read-out: RSV HEp-2 EC50
How it was run: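 HEp-2 cells mixed with titered RSV A2 at 50,000 cells/ml were added to plates holding 3-fold serial compound dilutions in DMSO, then incubated 4 days at 37° C. Cytoprotection was read as cell viability by CellTiter-Glo luminescence and converted to percent inhibition against 0% and 100% inhibition controls.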

RSV A2 = experiment: RSV NHBE EC50 (RSV A2 antiviral assay in normal human bronchial epithelial cells); assay type: cell-based; conditions: NHBE cells, RSV A2, 4 days, read-out: RSV NHBE EC50
[3] = tested on: Dengue serotype 2 New Guinea C (NGC) strain; experiment: DENV-2 Huh-7 EC50 (qPCR in Huh7 cells); assay type: cell-based; conditions: Dengue virus, DENV2, Huh-7, 48 h
Method: Huh7 (Human hepatocarcinoma 7) cells were maintained in 10% FCS-containing DMEM complete media. On the day of the assay, cells were trypsinized (0.1% Trypsin-EDTA), washed and infected for 2 hours in serum-free DMEM with Dengue serotype 2 New Guinea C (NGC) strain at MOI=0.1 with gentle agitation at 37° C. After 2 hours, cells were washed with serum-free media and suspended in 10% FCS-containing DMEM (Gibco, supplemented with sodium pyruvate, NEAA, Penicillin-Streptomycin). 10^5 cells were plated in triplicate in 96-well plates with compounds dispensed at graded doses (Hewlett-Packard D300 Digital Dispenser). All wells were normalized to 0.25% DMSO. At 48 hours, cells were washed with 1×PBS and all supernatants removed. Total RNA was extracted using RNEasy 96 plates (Qiagen) and used to generate first-strand cDNA using XLT cDNA 5×Supermix (QuantaBio). cDNA was used as a template in a Taqman qPCR duplex reaction specific to DENV2 viral and GAPDH gene expression. EC50 values were determined using Prism Graphpad software, with normalization to a positive control and no compound negative control wells.

RSV A strain A2 = experiment: RSV HAE EC50 (intracellular RSV RNA by real-time PCR in HAE cells); assay type: cell-based; conditions: read-out: RSV HAE EC50
Method: HAE cells are cultured at the air-liquid interface and have an apical side that is exposed to the air and a basal side that is in contact with the medium. Prior to experimentation, HAE were removed from their agar-based shipping packaging and were acclimated to 37° C./5% CO2 overnight in 1 ml of HAE Assay medium (AIR-100-MM, Mattek Corp). HAE were prepared for infection by washing the apical surface twice with 400 μL of PBS (either utilizing direct pipetting methods or by running each transwell through a trough containing PBS) to remove the mucus layer. Apical chambers were drained of PBS and tapped gently onto absorbent material to remove as much PBS as possible. After washing, the cells were transferred to fresh HAE maintenance media containing 4-fold serially diluted compound, delivered to the basal side of the cell monolayer, and apically infected with 100 μL of a 1:600 dilution of RSV A strain A2 1000× stock (ABI, Columbia, MD, cat #10-124-000) in HAE assay medium for 3 hours at 37° C. in 5% CO2. The virus inoculum was removed and the apical surface of the cells was washed 3 times with PBS using either method previously described. The cells were then cultured in the presence of compound for 3 days at 37° C. Following the incubation, total RNA was extracted from the HAE cells using a MagMAX-96 Viral RNA isolation kit (Applied Biosystems, Foster City, CA, Cat #AM1836) and intracellular RSV RNA was quantified by real-time PCR. Approximately 25 ng of purified RNA was added to a PCR reaction mixture that contained 0.9 μM RSV N Forward and RSV N Reverse primers, 0.2 μM RSV N Probe and 1×Taqman RNA-to-Ct 1-Step Kit (Applied Biosystems, Foster City, CA, Cat #4392938). RNA levels were normalized using a Tagman GAPDH control primer set (Applied Biosystems, Foster City, CA, Cat #402869). Real-Time PCR Primers and Probe Used in the RSV A2 HAE Antiviral Assay: […]

DENV2 replicon = experiment: DENV-2 Huh-7 Rep EC50 (replicon luminescence); assay type: cell-based; conditions: Dengue virus, DENV2, Huh-7, 48 h, Huh-7 replicon cells, 48 hours; read-out: DENV-2 Huh-7 Rep EC50
How it was run: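 Huh-7 cells carrying a DENV2 replicon, 5,000 cells/well, were incubated with dosed compounds for 48 h at 37° C. EnduRen live-cell substrate was added 1.5 h before luminescence reading. EC50 came from dose-response against DMSO-only wells.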

HRV16 = HRV16 HELA EC50 (cytopathic effect in H1-HeLa cells); assay type: cell-based; conditions: 96 h, H1-HeLa cells, 33° C., read-out: HRV16 HELA EC50
How it was run: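 H1-HeLa cells seeded one day before, given 3-fold serial compound dilutions in triplicate just prior to infection with pre-titrated virus. Incubated 96 h at 33 °C/5% CO2; protection from cytopathic effect read as viability by CellTiter-Glo luminescence, normalised to infected untreated (0%) and uninfected (100%) controls.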

in vitro [4] = conditions: human; remark: listed apart in the source
HRV14 = HRV14 HELA EC50 (cytopathic effect in H1-HeLa cells); assay type: cell-based; conditions: 96 h, read-out: HRV14 HELA EC50
Method: (§1) H1-HeLa cells, cultured in complete RPMI 1640 medium containing 10% heat-inactivated FBS and 1% Penicillin/Streptomycin, were seeded in 96 well plates at 5000 cells/well one day prior to compound dosing and infection. The antiviral activity of each compound was measured in triplicate. Compounds were added directly to the cell cultures in serial 3-fold dilutions using the HP300 digital dispenser (Hewlett Packard, Palo Alto, CA) immediately prior to infection. The plates were transferred to BSL-2 containment and 100 μL of 1/4000 dilution of HRV14 virus stock was added to each well containing cells and serially diluted compounds. Each plate included 6 wells of infected untreated cells and 6 wells of cells containing 5 μM Rupintrivir that served as 0% and 100% virus inhibition control, respectively. Following the infection, test plates were incubated for 96 h in a tissue culture incubator set to 37° C./5% CO2. Following incubation, the H1-HeLa cells were removed from incubation and allowed to equilibrate to 25° C. Cell viability was determined by removing 100 μL of culture medium and adding 100 μL of Cell-Titer Glo viability reagent. The mixtures were incubated on a shaker for 10 minutes at 25° C., and the luminescence signal was quantified on an Envision luminescence plate reader.

HRV10 = HRV10 HELA EC50; assay type: cell-based
HRV99 = HRV99 EC50; assay type: cell-based
HRV1a = experiment: HRV1A HELA EC50 (cytopathic effect in H1-HeLa cells); assay type: cell-based; conditions: 96 h, read-out: HRV1A HELA EC50
Method: as §1, with “HRV1a” for “HRV14”

[5] = human respiratory syncytial virus, HEp-2, 96 h
[6] = human respiratory syncytial virus, NHBE, 96 h

Structure (SMILES)	CC50 (in vitro [1]) [nM]	CC50 [2] [nM]	EC50 (RSV strain A2; [5]) [nM]	EC50 (RSV A2; [6]) [nM]	EC50 (DENV2 replicon) [nM]	EC50 (HRV16) [nM]	also measured
CC(C)C(=O)O[C@H]1[C@@H](O)[C@H](c2ccc3c(N)ncnn23)O[C@]1(C#N)CO[P@@](=O)(N[C@@H](C)C(=O)OC1CCCCC1)Oc1ccccc1 (single isomer, unassigned) [Example 206]	16600	55200	85	62			
C[C@H](NP(=O)(OC[C@@]1(C#N)O[C@@H](c2ccc3c(N)ncnn23)[C@H](O)[C@@H]1O)Oc1ccccc1)C(=O)OC1CCCCCCC1 (single isomer, unassigned) [Example 173]							EC50 [3]: 1210 nM; EC50 (RSV A strain A2; human respiratory syncytial virus, HAE, 72 h): 22 nM; EC50 (RSV strain A2): 156 nM; EC50 (RSV A2): 282 nM
CC1CCC(OC(=O)C(C)NP(=O)(OCC2(C#N)OC(c3ccc4c(N)ncnn34)C(O)C2O)Oc2ccccc2)CC1 (stereo not drawn) [Example 143]							EC50 (RSV A strain A2; HAE cells, RSV A2, 3 days): 157 nM; EC50 (RSV strain A2): 142 nM; EC50 (RSV A2): 53 nM
CC(C)C(=O)O[C@H]1[C@H](c2ccc3c(N)ncnn23)O[C@](C#N)(CO[P@@](=O)(N[C@@H](C)C(=O)OC2CCCCC2)Oc2ccccc2)[C@H]1O (single isomer, unassigned) [Example 205]		58600	101	27	6100	417	
CCOC(=O)[C@H](C)N[P@](=O)(OC[C@@]1(C#N)O[C@@H](c2ccc3c(N)ncnn23)[C@@H]2OC(OCC)O[C@@H]21)Oc1ccccc1 (stereo partly drawn) [Example 233, ethyl ((S)-(((3aS,4R,6S,6aS)-6-(4-aminopyrrolo[2,1-f][1,2,4]triazin-7-yl)-4-cyano-2-ethoxytetrahydrofuro[3,4-d][1,3]dioxol-4-yl)methoxy)(phenoxy)phosphoryl)-L-alaninate]		> 50000	1750	> 4640	35800	3350	
CC(C)OC(=O)[C@H](C)N[P@](=O)(OC[C@@]1(C#N)O[C@@H](c2ccc3c(N)ncnn23)[C@H](OC(=O)C(C)C)[C@@H]1O)Oc1ccccc1 (single isomer, unassigned) [Example 240]	> 50000	> 50000	166	190	10600	1310	CC50 (in vitro [4]): > 50000 nM
CC(C)OC(=O)[C@H](C)N[P@](=O)(OC[C@@]1(C#N)O[C@@H](c2ccc3c(N)ncnn23)[C@H](O)[C@@H]1OC(=O)C(C)(C)C)Oc1ccccc1 (single isomer, unassigned) [Example 239]	> 50000	> 50000	148	54	25400	1120	CC50 (in vitro [4]): > 50000 nM
CC(C)OC(=O)[C@H](C)N[P@](=O)(OC[C@@]1(C#N)O[C@@H](c2ccc3c(N)ncnn23)[C@H](O)[C@@H]1OC(=O)C(C)C)Oc1ccccc1 (single isomer, unassigned) [Example 241]	> 50000	> 50000	293	190	15500		
C[C@H](NP(=O)(OC[C@@]1(C#N)O[C@@H](c2ccc3c(N)ncnn23)[C@H](O)[C@@H]1O)Oc1ccccc1)C(=O)OCC1CCC1 (mixture of isomers) [Example 2, (2S)-cyclobutylmethyl 2-(((((2R,3S,4R,5S)-5-(4-aminopyrrolo[2,1-f][1,2,4]triazin-7-yl)-2-cyano-3,4-dihydroxytetrahydrofuran-2-yl)methoxy)(phenoxy)phosphoryl)amino)propanoate]			56	122		353	EC50 (HRV14): 340 nM; EC50 (HRV10): 114 nM; EC50 (HRV99): 708 nM; EC50 (HRV1a): 106 nM
COC(=O)[C@H](C)N[P@](=O)(OC[C@@]1(C#N)O[C@@H](c2ccc3c(N)ncnn23)[C@H](OC(=O)C(C)C)[C@@H]1O)Oc1ccccc1 [Example 250, (2S,3R,4S,5R)-2-(4-aminopyrrolo[2,1-f][1,2,4]triazin-7-yl)-5-cyano-4-hydroxy-5-((((S)—(((S)-1-methoxy-1-oxopropan-2-yl)amino)(phenoxy)phosphoryl)oxy)methyl)tetrahydrofuran-3-yl isobutyrate]		> 50000	69	51		1180	
